Assay results taken from PubChem BioAssay (NCI).
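Dose response: 5 concentrations. Exposure: 48 h. Format: 96-well plates. Endpoint: linear interpolation; highest concentration if not reached. GI50 is the concentration that inhibits growth by half. TGI: concentration producing complete growth inhibition.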

Assays:
Assay in all cases: DTP human tumour cell line panel, 48 h
M14 melanoma = tested on: M14 melanoma
EKVX NSCLC = tested on: EKVX NSCLC
PC-3 prostate = tested on: PC-3 prostate
SF-295 CNS = tested on: SF-295 CNS
SNB-19 CNS = tested on: SNB-19 CNS
UACC-62 melanoma = tested on: UACC-62 melanoma
OVCAR-3 ovarian = tested on: OVCAR-3 ovarian
NCI-H23 lung = tested on: NCI-H23 lung
HL-60(TB) leukemia = tested on: HL-60(TB) leukemia
T-47D breast = tested on: T-47D breast
786-0 renal = tested on: 786-0 renal
SR leukemia = tested on: SR leukemia
NCI/ADR-RES ovarian = tested on: NCI/ADR-RES ovarian
MDA-MB-231 breast = tested on: MDA-MB-231 breast
SK-MEL-28 melanoma = tested on: SK-MEL-28 melanoma
COLO 205 colon = tested on: COLO 205 colon
UACC-257 melanoma = tested on: UACC-257 melanoma
HT29 colon = tested on: HT29 colon
HS 578T breast = tested on: HS 578T breast
OVCAR-5 ovarian = tested on: OVCAR-5 ovarian
HOP-92 NSCLC = tested on: HOP-92 NSCLC
U251 CNS = tested on: U251 CNS
SK-MEL-2 melanoma = tested on: SK-MEL-2 melanoma
ACHN renal = tested on: ACHN renal
OVCAR-4 ovarian = tested on: OVCAR-4 ovarian
BT-549 breast = tested on: BT-549 breast
OVCAR-8 ovarian = tested on: OVCAR-8 ovarian
SF-268 CNS = tested on: SF-268 CNS
CAKI-1 renal = tested on: CAKI-1 renal
HOP-62 NSCLC = tested on: HOP-62 NSCLC
MDA-MB-435 = tested on: MDA-MB-435
LOX IMVI melanoma = tested on: LOX IMVI melanoma
HCT-116 colon = tested on: HCT-116 colon
RPMI-8226 leukemia = tested on: RPMI-8226 leukemia
A549 NSCLC = tested on: A549 NSCLC
MOLT-4 leukemia = tested on: MOLT-4 leukemia
HCC-2998 colon = tested on: HCC-2998 colon
A498 renal = tested on: A498 renal
HCT-15 colon = tested on: HCT-15 colon
MCF7 breast = tested on: MCF7 breast
RXF 393 renal = tested on: RXF 393 renal
TK-10 renal = tested on: TK-10 renal
DU-145 prostate = tested on: DU-145 prostate
IGROV1 ovarian = tested on: IGROV1 ovarian
CCRF-CEM leukemia = tested on: CCRF-CEM leukemia
SK-MEL-5 melanoma = tested on: SK-MEL-5 melanoma
SK-OV-3 ovarian = tested on: SK-OV-3 ovarian
NCI-H522 lung = tested on: NCI-H522 lung
NCI-H460 lung = tested on: NCI-H460 lung
NCI-H226 lung = tested on: NCI-H226 lung
SN12C renal = tested on: SN12C renal
MALME-3M melanoma = tested on: MALME-3M melanoma
K-562 leukemia = tested on: K-562 leukemia
SW-620 colon = tested on: SW-620 colon
KM12 colon = tested on: KM12 colon
SNB-75 CNS = tested on: SNB-75 CNS
SF-539 CNS = tested on: SF-539 CNS

CC1=C(CN(O)C(N)=O)C2=C(C)C3(CC3)[C@@](C)(O)C(=O)C2=C1 was tested, and the GI50 (M14 melanoma) was 269 nM, the TGI (M14 melanoma) was 699 nM and the GI50 (EKVX NSCLC) was 346 nM. The TGI (EKVX NSCLC) was 1530 nM, the GI50 (PC-3 prostate) was 398 nM and the TGI (PC-3 prostate) was 5240 nM. The GI50 (SF-295 CNS) was 252 nM, the TGI (SF-295 CNS) was 1160 nM and the GI50 (SNB-19 CNS) was 469 nM. For the same molecule, the TGI (SNB-19 CNS) was 6180 nM, the GI50 (UACC-62 melanoma) was 224 nM and the TGI (UACC-62 melanoma) was 562 nM. For the same molecule, the GI50 (OVCAR-3 ovarian) was 260 nM, the TGI (OVCAR-3 ovarian) was 769 nM and the GI50 (NCI-H23 lung) was 109 nM. The TGI (NCI-H23 lung) was 544 nM, the GI50 (HL-60(TB) leukemia) was 279 nM and the TGI (HL-60(TB) leukemia) was 3550 nM. For the same molecule, the GI50 (T-47D breast) was 214 nM, the TGI (T-47D breast) was 1720 nM and the GI50 (786-0 renal) was 343 nM. It also gave a GI50 (SR leukemia) of 7600 nM, a TGI (SR leukemia) of over 80900 nM and a GI50 (NCI/ADR-RES ovarian) of 381 nM. For the same molecule, the TGI (NCI/ADR-RES ovarian) was 3110 nM, the GI50 (MDA-MB-231 breast) was 324 nM and the TGI (MDA-MB-231 breast) was 1780 nM. The GI50 (SK-MEL-28 melanoma) was 229 nM, the TGI (SK-MEL-28 melanoma) was 505 nM and the GI50 (COLO 205 colon) was 185 nM. The TGI (COLO 205 colon) was 517 nM, the GI50 (UACC-257 melanoma) was 280 nM and the TGI (UACC-257 melanoma) was 765 nM. For the same molecule, the GI50 (HT29 colon) was 316 nM, the TGI (HT29 colon) was over 34500 nM and the GI50 (HS 578T breast) was 503 nM. The TGI (HS 578T breast) was 3000 nM, the GI50 (OVCAR-5 ovarian) was 367 nM and the TGI (OVCAR-5 ovarian) was 2270 nM. For the same molecule, the GI50 (HOP-92 NSCLC) was 208 nM, the TGI (HOP-92 NSCLC) was 618 nM and the GI50 (U251 CNS) was 337 nM. It also gave a GI50 (SK-MEL-2 melanoma) of 356 nM, a TGI (SK-MEL-2 melanoma) of 1210 nM and a GI50 (ACHN renal) of 236 nM. The TGI (ACHN renal) was 572 nM, the GI50 (OVCAR-4 ovarian) was 285 nM and the TGI (OVCAR-4 ovarian) was 1550 nM. For the same molecule, the GI50 (BT-549 breast) was 367 nM, the TGI (BT-549 breast) was 1590 nM and the GI50 (OVCAR-8 ovarian) was 337 nM. It also gave a TGI (OVCAR-8 ovarian) of 6680 nM, a GI50 (SF-268 CNS) of 236 nM and a TGI (SF-268 CNS) of 1560 nM. For the same molecule, the GI50 (CAKI-1 renal) was 253 nM, the TGI (CAKI-1 renal) was 1350 nM and the GI50 (HOP-62 NSCLC) was 178 nM. For the same molecule, the TGI (HOP-62 NSCLC) was 996 nM, the GI50 (MDA-MB-435) was 662 nM and the TGI (MDA-MB-435) was 2370 nM. The GI50 (LOX IMVI melanoma) was 402 nM, the TGI (LOX IMVI melanoma) was 2040 nM and the GI50 (HCT-116 colon) was 267 nM. It also gave a GI50 (RPMI-8226 leukemia) of 7190 nM, a TGI (RPMI-8226 leukemia) of over 100000 nM and a GI50 (A549 NSCLC) of 118 nM. For the same molecule, the TGI (A549 NSCLC) was 1220 nM, the GI50 (MOLT-4 leukemia) was 21300 nM and the TGI (MOLT-4 leukemia) was over 100000 nM. It also gave a GI50 (HCC-2998 colon) of 174 nM, a TGI (HCC-2998 colon) of 414 nM and a GI50 (A498 renal) of 175 nM. It also gave a TGI (A498 renal) of 359 nM, a GI50 (HCT-15 colon) of 267 nM and a TGI (HCT-15 colon) of 883 nM. The GI50 (MCF7 breast) was 921 nM, the TGI (MCF7 breast) was 10100 nM and the GI50 (RXF 393 renal) was 141 nM. For the same molecule, the TGI (RXF 393 renal) was 290 nM, the GI50 (TK-10 renal) was 308 nM and the TGI (TK-10 renal) was 909 nM. It also gave a GI50 (DU-145 prostate) of 43.9 nM, a TGI (DU-145 prostate) of 1110 nM and a GI50 (IGROV1 ovarian) of 208 nM. For the same molecule, the TGI (IGROV1 ovarian) was 940 nM, the GI50 (CCRF-CEM leukemia) was 29600 nM and the TGI (CCRF-CEM leukemia) was over 100000 nM. The GI50 (SK-MEL-5 melanoma) was 195 nM, the TGI (SK-MEL-5 melanoma) was 409 nM and the GI50 (SK-OV-3 ovarian) was 305 nM. The TGI (SK-OV-3 ovarian) was 1090 nM, the GI50 (NCI-H522 lung) was 1230 nM and the TGI (NCI-H522 lung) was 4650 nM. It also gave a GI50 (NCI-H460 lung) of 45.2 nM, a TGI (NCI-H460 lung) of 909 nM and a GI50 (NCI-H226 lung) of 235 nM. It also gave a TGI (NCI-H226 lung) of 644 nM, a GI50 (SN12C renal) of 373 nM and a TGI (SN12C renal) of 2670 nM. For the same molecule, the GI50 (MALME-3M melanoma) was 205 nM, the TGI (MALME-3M melanoma) was 424 nM and the GI50 (K-562 leukemia) was 16300 nM. The TGI (K-562 leukemia) was over 100000 nM, the GI50 (SW-620 colon) was 10800 nM and the TGI (SW-620 colon) was over 100000 nM. It also gave a GI50 (KM12 colon) of 530 nM, a TGI (KM12 colon) of 5410 nM and a GI50 (SNB-75 CNS) of 215 nM. The TGI (SNB-75 CNS) was 464 nM, the GI50 (SF-539 CNS) was 216 nM and the TGI (SF-539 CNS) was 556 nM.
